Source: patent US11166907B2, “Non-covalently assembled conductive hydrogel” (DENOVOMATRIX GMBH, priority 2017, dated 2021)

Legend:
[1] = tested on: HeLa cells; test: Cytotoxic effect of drug released from drug-encapsulating hydrogels; format: cell-based; settings: drug released from rGO:PEDOT:PSS/starPEG-KA7 hydrogels, diluted 10× or 100×
Experimental: The released compounds were diluted 10× or 100× times for the treatment.

[2] = Drug encapsulation and release from conductive hydrogels; format: physicochemical
Experimental: Because the networks of PEG-peptide/PEDOT:PSS hydrogel and the PEG-peptide/rGO:PEDOT:PSS hydrogels are amphipathic, they can bind to both hydrophobic and charged hydrophilic compounds. The encapsulation of hydrophilic and hydrophobic drug compounds was tested. PEDOT:PSS was premixed with either hydrophilic compound doxorubicin or hydrophobic compound paclitaxel, followed by adding 5 kD-PEG-KA7. […] Doxorubicin can be encapsulated with a concentration of 0.8 mg/mL, while 0.1 mg/mL paclitaxel can be encapsulated into the hydrogel. Paclitaxel in excess formed precipitate at the bottom. rGO:PEDOT:PSS was premixed with either doxorubicin or paclitaxel, followed by adding starPEG-KA7. […] Doxorubicin can be encapsulated with a concentration as high as 0.8 mg/mL, while 1.0 mg/mL paclitaxel can be encapsulated into the hydrogel. The hydrogels loaded with drugs were then incubated in PBS, and the release of drugs was monitored.

[3] = Hydrogel formation by mixing PEG-peptide conjugate with anionic polymer; format: physicochemical; settings: (BX)n oligopeptide coupled to PEG-5 k (FIG. 1B)
Experimental: 14-kD-heparin ([…], 2.5 mM) and star-PEG-peptide conjugates (6.25 mM, 3.125 mM) were dissolved in physiologic phosphate buffer solution (1×PBS) water or cell culture medium with 2% fetal bovine serum (FBS). These solutions were dissolved in a ratio of 1:4 heparin:star-PEG-peptide-conjugate by obtaining 0.5 mM or 5 mM 14-kD-heparin and 2.5 mM or 5 mM star-PEG-peptide. The ligand/mol ratio was 2:1, 1:1 and 1:5 relative to the mol ratio of 14-kD-heparin and the star-PEG-peptide-conjugate. The mixtures were incubated within a time frame of one hour to overnight at room temperature […]. The gelling time spanned from present up to several hours depending on the applied peptide motif. A hydrogel was formed when it survived the addition of physiological phosphate buffer solution (1×PBS) pH 7.4 to the mixture after the incubation of the mixture over the prior night without mixing with the added solution.
L1-(BX)n peptides comprising a (BX)n peptide selected from KA7, KA5, KA3, KS7, KG7, RA7, and RG7, where X is alanine, glycine or serine (FIG. 1B), were synthesized. The thiol group of cysteine was used to link the peptides to maleimide-functionalized PEG by Michael-type addition reaction, while the tryptophan was used to facilitate the monitoring during HPLC purification and quantification (supporting information). It was first tested whether sulfated oligosaccharide could be replaced by PEDOT:PSS to form a stable hydrogel. starPEG-KA7 in PBS was mixed with PEDOT:PSS aqueous solution to final concentrations of 2.5 mM and 1%, respectively. […] Without conjugation to the oligopeptide, neither maleimide-functionalized nor amino-functionalized PEG formed a hydrogel with PEDOT:PSS.
Moreover, it is much easier to separate a linear PEG chain with two peptides from that with only one peptide, as compared to purify the starPEG with 4 peptides from a mixture of lower degree of modification. Therefore, in the following study, the hydrogel formation using linear PEG-peptides was investigated. […] To incorporate a cell adhesive motiv into the modular network, the RGDSP (SEQ ID NO: 25) sequence was added as part of the linker to the KA7 oligopeptide. […] L2 contains the RGDSP (SEQ ID NO: 25) sequence.
To test whether the non-covalent assembling approach can also be applied to other conductive polymers, the hydrogel formation using PEG-peptide or starPEG-peptide with graphene derivatives was investigated. While graphene has very poor water solubility, graphene oxide (GO) was used. […] Apparently, the carboxylic acid presented on graphene is not sufficient to form stable crosslinking with positively charged peptide-polymer.
Reducing GO in the present of PSS also led to water-soluble and conductive material rGO/PSS. Hydrogel formation using rGO:PSS or rGO:PEDOT:PSS (FIG. 5A) was tested. […]

[4] = Electrochemical properties (cyclic voltammetry, impendency); format: physicochemical
Text: The cyclic voltammetry (CV) curve of 5 kD-PEG-KA7/PEDOT:PSS is typical of PEDOT:PSS-based materials, showing the oxidation peak between +500 mV and +650 mV and reduction occurring between −100 mV and −50 mV (FIG. 3A). The structure-function relationship between chemical composition of the modular system and electrochemical properties was investigated

[5] = 5 kD-PEG-KA7/PEDOT:PSS hydrogel
[6] = rGO:PEDOT:PSS/starPEG-KA7 hydrogel
[7] = the hydrogel (description, type not specified)

In the case of CC(=O)O[C@H]1C(=O)[C@@]2(C)[C@H]([C@H](OC(=O)c3ccccc3)[C@]3(O)C[C@H](OC(=O)[C@H](O)[C@@H](NC(=O)c4ccccc4)c4ccccc4)C(C)=C1C3(C)C)[C@]1(OC(C)=O)CO[C@@H]1C[C@@H]2O [paclitaxel], the “effect on HeLa cells” value [1] is reported as “cytotoxic effect”, the “concentration that can be encapsulated” value [2, 5] is reported as 100 µg/mL and the “concentration that can be encapsulated” value [2, 6] is reported as 1000 µg/mL. The “concentration that can be encapsulated” value [2, 7] was 1000 µg/mL.
In the case of KAKAKAKAKAKAKA [KA7], the “hydrogel formation with PEDOT:PSS” value [3] is reported as “formed homogeneous hydrogels”.
For CWGGRGDSP [L2, 14], the “change of impendency / conductivity compared to 5 kD-PEG-KA7/PEDOT:PSS” value ([4]; alanine replaced by serine, or RGDSP added within linker) was “minor effect on the conductivity”.
For KSKSKSKSKSKSKS [KS7], the “hydrogel formation with PEDOT:PSS” value [3] was “formed homogeneous hydrogels”.
For heparin, the “effect on conductivity of hydrogel” value ([4]; 1 mM heparin in hydrogel of 1% PEDOT:PSS and 2.5 mM starPEG-KA7, versus 1% PEDOT:PSS and 2.5 mM 5 kD-PEG-KA7) was “enhanced the conductivity”.
In the case of KAKAKAKAKA [KA5], the “hydrogel formation with PEDOT:PSS” value [3] is reported as “formed homogeneous hydrogels”.
With RARARARARARARA [RA7] the “hydrogel formation with PEDOT:PSS” value [3] was “formed homogeneous hydrogels”.
For COc1cccc2c1C(=O)c1c(O)c3c(c(O)c1C2=O)C[C@@](O)(C(=O)CO)C[C@@H]3O[C@H]1C[C@H](N)[C@H](O)[C@H](C)O1 [Doxorubicin, doxorubicin], the “effect on HeLa cells” value [1] was “cytotoxic effect”, the “concentration that can be encapsulated” value [2, 5] was 800 µg/mL and the “concentration that can be encapsulated” value [2, 6] was 800 µg/mL. For the same compound, the “concentration that can be encapsulated” value [2, 7] was 800 µg/mL.
